Results: US7541364B2, “Pyridomorphinans, pyridazinomorphinans and use thereof” (priority 2003, dated 2009)
Structures can show the parent of a compound that is named as a salt.

What was measured:
δ receptor [1] = biological target: T1, δ receptor (Cavia porcellus, UniProt A0A286XTF2); assay: biochemical; parameters: Emax: dose or concentration left out as unconfirmed
mice = assay: 55° C. tail-flick antinociception test in mice; conditions: for A50: at time of peak drug effect; for naloxone sensitivity: naloxone 10 mg/kg ip, -10 min, yes = greater than 80% reduction in the antinociceptive effect
Protocol: Analgesic Testing and Assessment of Tolerance Development. The analgesic activity of selected ligands is tested in mice using the 55° C. tail-flick test as previously described. (See Wells et al., supra.) The test compounds are administered by the intracerbroventricular (icv) route. […] To determine whether the analgesic activity of the tested compounds is mediated through opioid receptors, the blockade of antinociceptive activity by pretreatment with naloxone is carried out. The analgesic activity was considered as naloxone sensitive if greater than 80% reduction in the antinociceptive response is observed.
Antinociceptive Studies. Male ICR mice (Harlan) are used for all evaluations. Mice are housed in a temperature and humidity controlled vivarium on a 12:12 h light:dark cycle with unlimited access to food and water prior to the formal procedures. […] The dihydrochloride salt of 7h is dissolved in water and injected in a volume of 5 μL. All other compounds are dissolved in 100% DMSO and injected in a volume of 5 μL. Antinociceptive assays are performed at various times after injection.
Percent antinociception is calculated using the formula: % MPE (maximal possible effect)=100×(test−control)/(cutoff−control) where control is the predrug observation, test is the postdrug observation, and cutoff is the maximal length of stimulus allowed (10 s for 55° C. tail-flick). Antinociceptive A50 values and 95% confidence intervals are determined using linear regression software (FlashCalc). Opioid activity of the test compounds are assessed by pretreating animals with naloxone (10 mg/kg ip, −10 min) followed by an icv injection of an approximate A90 dose of test compound. […] Antinociception is assessed in the 55° C. tail-flick test at 10, 20 and 30 min. A positive response to a fixed dose of naloxone is indicated when greater than 80% reduction in the antinociceptive effect of the agonist is observed.

opioid δ receptor = biological target: T2, opioid δ receptor (Rattus norvegicus, UniProt P33533); assay: Opioid δ receptor binding, [3H]DADLE displacement in rat brain membranes; conditions: for Ki: displacement of [3H]DADLE (1.3-2.0 nM), rat brain membranes, 100 nM DAMGO to block μ sites, read-out: Ki (nM) ± SEM δ
T2 construct: Rat membranes are prepared each day using a partially thawed frozen rat brain; from tissue; host or cells: rat brain membranes

opioid μ receptor = opioid μ receptor (Rattus norvegicus, UniProt P33535); conditions: for selectivity ratio μ/δ: ratio of binding Ki values; for Ki: read-out: Ki (nM) ± SEM μ, displacement of [3H]DAMGO (1.4-3.0 nM), rat brain membranes
opioid κ receptor = opioid κ receptor (Cavia porcellus, UniProt P41144); conditions: for selectivity ratio κ/δ: ratio of binding Ki values; for Ki: read-out: Ki (nM) ± SEM κ, displacement of [3H]U69,593 (1.2-[…]), guinea pig brain membranes
δ receptor [2] = biological target: T1, δ receptor
μ receptor [3] = biological target: T3, μ receptor (Cavia porcellus, UniProt A0ACM8Q262); conditions: for Ki: read-out: antagonist activity apparent Ki (nM ± SD) μ, inhibition of DAMGO (10 μM) stimulated [35S]GTP-γ-S binding; for EC50: read-out: agonist activity EC50 (nM ± SD) μ, δ and κ sites blocked with TIPP (1 μM) and nor-BNI (6 nM)
κ receptor = κ receptor (Cavia porcellus, UniProt P41144); conditions: read-out: antagonist activity apparent Ki (nM ± SD) κ
μ receptor [4] = biological target: T3, μ receptor; assay: biochemical; parameters: dose or concentration left out as unconfirmed; conditions: read-out: agonist activity Emax % μ
[5] = biological target: T4, δ receptor (mouse vas deferens) (Mus musculus, UniProt P32300); assay: Mouse vas deferens (MVD) smooth muscle bioassay; parameters: from tissue; host or cells: mouse vas deferens (male ICR mice)
Protocol: (§1) Bioassays in Smooth Muscle Preparations. The functional activity profiles of selected ligands are also determined in the mouse vas deferens (MVD) and guinea pig ileum (GPI) smooth muscle preparations as described previously.
(§2) The agonist activity is determined by the ability of the compound to inhibit electrically stimulated contractions of the GPI and MVD. The GPI is primarily a μ receptor preparation, even though the ileum does also contain κ receptors. In the MVD, the opioid effects are predominantly mediated through δ receptors, but μ and κ receptors also exist in this tissue.
(§3) Tissues came from male ICR mice weighing 25-40 g and male Hartley guinea pigs weighing 250-500 g. The tissues are tied to gold chain with suture silk, suspended in 20 mL baths containing 37° C. oxygenated (95% O2, 5% CO2) Krebs bicarbonate solution (magnesium free for the MVD), and allowed to equilibrate for 15 min. The tissues are then stretched to optimal length previously determined to be 1 g tension (0.5 g for MVD) and allowed to equilibrate for 15 min. The tissues are stimulated transmurally between platinum wire electrodes at 0.1 Hz, 0.4 ms pulses (2-ms pulses for MVD), and supramaximal voltage. […] Tissues not producing typical results are not used. Experimental compounds were added to the baths in 14-60 μL volumes. Succeeding doses of agonist are added cumulatively to the bath at 3 min intervals to produce a concentration-response curve. The tissues are then washed extensively with fresh buffer until the original contraction height is reestablished. […] The tissues are then washed with fresh buffer for 30 min, and the agonist dose-response curve was repeated. Rightward shifts in the dose-response curves are calculated by dividing the antagonized dose-response curve IC50 value by the unantagonized IC50 value. IC50 values represent the mean of two to four tissues. IC50 estimates and their associated standard errors are determined by using a computerized nonlinear least-squares method. (MINSQ Least Squares Parameter Estimation, version 3.05; MicroMath Inc., 1999.)

[6] = biological target: T4, δ receptor (mouse vas deferens); assay: Mouse vas deferens (MVD) smooth muscle bioassay; conditions: for IC50: inhibition of electrically stimulated contractions, read-out: agonist activity MVD (δ) IC50
Protocol: as §1, §2, §3

T2 sequence (P33533 whole entry): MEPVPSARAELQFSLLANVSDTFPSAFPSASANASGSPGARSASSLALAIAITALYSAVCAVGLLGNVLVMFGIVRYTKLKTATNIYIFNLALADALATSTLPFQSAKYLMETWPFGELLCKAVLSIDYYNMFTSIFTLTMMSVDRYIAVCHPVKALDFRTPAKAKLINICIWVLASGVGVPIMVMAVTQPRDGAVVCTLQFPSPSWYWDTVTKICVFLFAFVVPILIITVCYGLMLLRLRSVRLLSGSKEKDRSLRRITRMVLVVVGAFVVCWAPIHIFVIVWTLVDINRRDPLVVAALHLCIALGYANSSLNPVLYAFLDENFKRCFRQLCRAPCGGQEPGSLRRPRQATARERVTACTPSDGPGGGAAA
T3 sequence (A0ACM8Q262 1-400): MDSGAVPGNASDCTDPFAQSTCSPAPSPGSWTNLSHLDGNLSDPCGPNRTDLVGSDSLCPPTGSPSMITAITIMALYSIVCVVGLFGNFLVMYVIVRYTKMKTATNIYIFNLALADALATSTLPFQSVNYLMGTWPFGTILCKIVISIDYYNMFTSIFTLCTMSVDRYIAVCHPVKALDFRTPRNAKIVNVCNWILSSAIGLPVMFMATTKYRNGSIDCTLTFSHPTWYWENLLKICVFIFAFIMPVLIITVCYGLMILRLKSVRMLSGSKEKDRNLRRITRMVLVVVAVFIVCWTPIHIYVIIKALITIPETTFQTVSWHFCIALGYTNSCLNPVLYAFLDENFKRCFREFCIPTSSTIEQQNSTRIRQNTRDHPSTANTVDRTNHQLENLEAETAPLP
Chain of opioid κ receptor (P41144 whole entry): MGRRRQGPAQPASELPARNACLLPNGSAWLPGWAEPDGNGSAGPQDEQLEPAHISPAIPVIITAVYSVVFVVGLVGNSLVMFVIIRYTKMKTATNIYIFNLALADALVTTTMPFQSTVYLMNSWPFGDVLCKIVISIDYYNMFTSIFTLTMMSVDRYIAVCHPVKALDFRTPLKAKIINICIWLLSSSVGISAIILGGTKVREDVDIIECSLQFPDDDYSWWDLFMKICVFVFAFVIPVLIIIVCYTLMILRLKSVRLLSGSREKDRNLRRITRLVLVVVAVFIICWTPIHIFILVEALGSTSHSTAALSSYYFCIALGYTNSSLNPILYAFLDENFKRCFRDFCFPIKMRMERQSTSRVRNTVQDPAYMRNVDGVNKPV
T4 sequence (P32300 whole entry): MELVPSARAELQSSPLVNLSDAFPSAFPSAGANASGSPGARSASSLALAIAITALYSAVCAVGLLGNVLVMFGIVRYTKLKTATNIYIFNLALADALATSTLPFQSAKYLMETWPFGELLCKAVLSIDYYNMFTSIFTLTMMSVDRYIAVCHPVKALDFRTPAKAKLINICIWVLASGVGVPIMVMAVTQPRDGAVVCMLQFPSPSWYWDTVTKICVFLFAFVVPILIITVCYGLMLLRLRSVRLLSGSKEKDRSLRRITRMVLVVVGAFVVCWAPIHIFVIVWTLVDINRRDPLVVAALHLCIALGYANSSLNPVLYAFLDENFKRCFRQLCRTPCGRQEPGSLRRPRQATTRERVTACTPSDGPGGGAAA
Chain of opioid μ receptor (P33535 whole entry): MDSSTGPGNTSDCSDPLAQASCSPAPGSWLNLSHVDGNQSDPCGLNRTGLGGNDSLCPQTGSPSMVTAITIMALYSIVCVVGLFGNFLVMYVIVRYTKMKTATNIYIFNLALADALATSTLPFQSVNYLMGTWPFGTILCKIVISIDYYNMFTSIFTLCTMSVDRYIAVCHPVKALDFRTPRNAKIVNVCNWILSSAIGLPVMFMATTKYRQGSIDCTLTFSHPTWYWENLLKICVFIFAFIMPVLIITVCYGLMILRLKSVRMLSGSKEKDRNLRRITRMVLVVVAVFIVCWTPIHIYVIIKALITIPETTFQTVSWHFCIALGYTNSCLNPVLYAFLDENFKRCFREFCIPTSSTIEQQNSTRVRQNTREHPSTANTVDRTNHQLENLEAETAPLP
T1 sequence (A0A286XTF2 1-366): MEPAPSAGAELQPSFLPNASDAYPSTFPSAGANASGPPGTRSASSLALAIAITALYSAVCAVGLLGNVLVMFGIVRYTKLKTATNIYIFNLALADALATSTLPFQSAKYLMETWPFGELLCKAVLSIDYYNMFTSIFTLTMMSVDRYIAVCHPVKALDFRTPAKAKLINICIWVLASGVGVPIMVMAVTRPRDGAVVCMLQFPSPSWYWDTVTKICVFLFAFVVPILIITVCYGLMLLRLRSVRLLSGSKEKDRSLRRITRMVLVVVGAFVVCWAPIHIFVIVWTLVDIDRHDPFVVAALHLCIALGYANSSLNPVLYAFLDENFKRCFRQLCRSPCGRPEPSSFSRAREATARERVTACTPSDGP
Chain of κ receptor (P41144 whole entry): as the sequence (P41144 whole entry) above

Structure (SMILES) | melting point | naloxone sensitivity (mice) | Ki (opioid δ receptor) [nM] | selectivity ratio μ/δ (opioid μ receptor) | Ki (opioid μ receptor) [nM] | selectivity ratio κ/δ (opioid κ receptor) | Ki (opioid κ receptor) [nM] | Ki (μ receptor [3]) [nM] | Ki (δ receptor [1]) [nM] | Emax (μ receptor [4]) [%] | also measured
CN1CC[C@]23c4c5ccc(O)c4O[C@H]2c2ncc(-c4ccc(Cl)cc4)cc2C[C@H]3[C@H]1C5 (as salt: salt) [7h, 5′-(4-Chlorophenyl)-6,7-didehydro-4,5α-epoxy-3-hydroxy-17-methylpyrido[2′,3′:6,7]morphinan] | 276 to 278 °C (dec.) | – | – | – | – | – | – | – | – | – | –
C=CCN1C[C@H](C)N([C@H](c2ccc(C(=O)N(CC)CC)cc2)c2cccc(OC)c2)C[C@H]1C [SNC80, reference compound] | – | – | – | – | – | – | – | – | – | – | EC50 (δ receptor [1]): 758 ± 131 nM; Emax (δ receptor [1]; read-out: agonist activity Emax % δ): 100%
CN1CC[C@]23c4c5ccc(O)c4O[C@H]2[C@@H](O)C=C[C@H]3[C@H]1C5 [Morphine, reference compound] | – | yes | – | – | – | – | – | – | – | – | A50 (mice; icv, mouse tail-flick): 4.2 nmol
COc1ccc2c3c1O[C@H]1c4ncccc4C[C@@]4(O)[C@@H](C2)N(C)CC[C@]314 [7m, 6,7-Didehydro-4,5α-epoxy-14-hydroxy-3-methoxy-17-methylpyrido[2′,3′:6,7]morphinan] | 210 to 212 °C | – | 143 ± 9 | – | – | – | – | – | – | – | –
COc1ccc2c3c1O[C@H]1c4ncc(-c5ccc(Cl)cc5)cc4C[C@@]4(O)[C@@H](C2)N(C)CC[C@]314 [7o, 5′-(4-chlorophenyl)-6,7-didehydro-4,5α-epoxy-14-hydroxy-3-methoxy-17-methyl-pyrido[2′,3′:6,7]morphinan] | 112 to 114 °C | – | 21 ± 2 | – | – | – | – | – | – | – | –
CN1CC[C@]23c4c5ccc(O)c4O[C@H]2c2ncc(-c4ccc(Cl)cc4Cl)cc2C[C@H]3[C@H]1C5 [7k, 5′-(2,4-Dichlorophenyl)-6,7-didehydro-4,5α-epoxy-3-hydroxy-17-methylpyrido[2′,3′:6,7]morphinan] | 198 to 200 °C | – | 1.1 | 88 | 97 ± 4 | 366 | 403 ± 9 | > 1000 | 1.08 ± 0.11 | 51 ± 5 | enhancement in binding affinity at the δ receptor relative to 7h (opioid δ receptor): 4 fold; % nociception @ 60 nmol (mice; icv, 60 nmol, mouse tail-flick): 40% @ 60 nmol^e; factor that prevented determining the A50 value (mice; icv, mouse tail-flick): lack of efficacy; improvement in antagonist potency at the δ receptor relative to 7h (δ receptor [2]): 10 fold; Ki (κ receptor): 308 ± 21 nM; Kb [5]: 5.02 ± 1.56 nM; antagonist activity MVD (δ) Ke ([5]; DPDPE as agonist, 1 μM compound, 30 min preincubation): 5 nM
CN1CC[C@]23c4c5ccc(O)c4O[C@H]2c2ncccc2C[C@@]3(O)[C@H]1C5 [7b, 6,7-Didehydro-3,14-dihydroxy-4,5α-epoxy-17-methylpyrido[2′,3′:6,7]morphinan] | > 230 °C | yes | 18 ± 1.4 | 0.4 | 7.9 ± 0.23 | 15 | 264 ± 18 | > 1000 | > 1000 | 40 ± 2 | A50 (mice; icv, mouse tail-flick): 67.1 nmol
C=CCN1CC[C@]23c4c5ccc(O)c4O[C@H]2c2ncc(-c4ccc(Cl)cc4)cc2C[C@@]3(O)[C@H]1C5 [7a, 17-(Allyl)-6,7-didehydro-3,14-dihydroxy-4,5α-epoxy-5′-(4-chlorophenyl)pyrido[2′,3′:6,7]morphinan] | 168 to 172 °C | – | 8.2 ± 0.07 | – | – | – | – | – | – | – | reduction in affinity at the δ site compared to 2c (opioid δ receptor; N-allyl vs N-CPM): 4 fold
Oc1ccc2c3c1O[C@H]1c4ncc(-c5ccc(Cl)cc5)cc4C[C@H]4[C@@H](C2)N(CC2CC2)CC[C@]314 [7l, 5′-(4-Chlorophenyl)-17-(cyclopropylmethyl)-6,7-didehydro-4,5α-epoxy-3-hydroxypyrido[2′,3′:6,7]morphinan] | 178 to 180 °C | – | 2.6 ± 0.12 | 24 | 62 ± 3 | 2.3 | 6 ± 0.3 | – | 1.56 ± 0.14 | – | % nociception @ 300 nmol (mice; icv, 300 nmol, mouse tail-flick): 18% @ 300 nmol; factor that prevented determining the A50 value (mice; icv, mouse tail-flick): lack of efficacy; Ki (κ receptor): 11.2 ± 0.62 nM; Kb [5]: 6 ± 1.33 nM
C[C@@H](NC(=O)[C@@H](N)Cc1ccc(O)cc1)C(=O)NCC(=O)N(C)[C@@H](Cc1ccccc1)C(=O)NCCO [DAMGO, reference compound] | – | – | – | – | – | – | – | – | – | 100 | EC50 (μ receptor [3]): 414 nM
COc1ccc2c3c1O[C@H]1c4ncc(-c5ccc(Cl)cc5)cc4C[C@H]4[C@@H](C2)N(CC2CC2)CC[C@]314 [7q, 5′-(4-chlorophenyl)-17-(cyclopropylmethyl)-6,7-didehydro-4,5α-epoxy-3-methoxypyrido[2′,3′:6,7]morphinan] | 196 to 198 °C | – | 41 ± 3 | – | – | – | – | – | – | – | –
CN1CC[C@]23c4c5ccc(O)c4O[C@H]2c2ncccc2C[C@H]3[C@H]1C5 [7f, 6,7-Didehydro-4,5α-epoxy-3-hydroxy-17-methylpyrido[2′,3′:6,7]morphinan] | 164 to 166 °C | no | 8 ± 0.8 | 2.0 | 13 ± 0.5 | 8 | 66 ± 2 | > 1000 | 595 ± 48 | 44 ± 1 | IC50 [6]: 152 ± 25.5 nM; blockade of agonist activity in the MVD by antagonists ([6]; naloxone and ICI-174,864): blocked by the nonselective antagonist naloxone but not by the δ selective antagonist ICI-174,864; % nociception @ 100 nmol (mice; icv, mouse tail-flick): 75% @100 nmol; factor that prevented determining the A50 value (mice; icv, mouse tail-flick): insensitivity to naloxone; EC50 (μ receptor [3]): 502 ± 76 nM
CN1CC[C@]23c4c5ccc(O)c4O[C@H]2c2ncc(-c4ccccc4)cc2C[C@H]3[C@H]1C5 [7g, 6,7-Didehydro-4,5α-epoxy-3-hydroxy-17-methyl-5′-phenylpyrido[2′,3′:6,7]morphinan] | – | yes | 1.9 ± 0.09 | 13 | 24 ± 2 | 43 | 81 ± 5 | > 1000 | > 1000 | 60 | IC50 [6]: 48.4 ± 8.65 nM; % nociception @ 100 nmol (mice; icv, mouse tail-flick): 48% @ 100 nmol; toxicity preventing A50 determination (mice; icv, mice): toxicity
